The values below come from ChEMBL document CHEMBL3817834, “Scaffold morphing leading to evolution of 2,4-diaminoquinolines and aminopyrazolopyrimidines as inhibitors of the ATP synthesis pathway” (Medchemcomm, 2016).

The structures appear in SMILES notation. Values after ≈ are worked out from the molar mass of the structure shown.

Common to all, as to type: functional
The subject of test [1] is Mycobacterium tuberculosis. Put plainly: Antimycobacterial activity against streptomycin resistant Mycobacterium tuberculosis isolate 35820 by turbidometric method.
Test [2] concerns Mycobacterium tuberculosis. Description: Antimycobacterial activity against isoniazid resistant Mycobacterium tuberculosis isolate 35822 by turbidometric method.
In test [3] the test system is Mycobacterium tuberculosis. Description: Antimycobacterial activity against rifampicin resistant Mycobacterium tuberculosis isolate 19000 by turbidometric method.
For test [4], the system named is Mycobacterium tuberculosis. Put plainly: Antimycobacterial activity against ethambutol resistant Mycobacterium tuberculosis isolate 17003 by turbidometric method.
Test [5] has as its system Mycobacterium tuberculosis. Description: Antimycobacterial activity against ofloxacin resistant Mycobacterium tuberculosis isolate 12119 by turbidometric method.
Test [6] relates to Mycobacterium tuberculosis. Description: Antimycobacterial activity against bedaquiline resistant Mycobacterium tuberculosis harboring I66M mutant by turbidometric method.
Test [7] concerns Mycobacterium tuberculosis. Description: Antimycobacterial activity against bedaquiline resistant Mycobacterium tuberculosis harboring A63P mutant by turbidometric method.

On to `COc1nc2ccc(Br)cc2cc1[C@@H](c1ccccc1)[C@@](O)(CCN(C)C)c1cccc2ccccc12` [BEDAQUILINE], for which the MIC80 in test [1], in test [2], in test [3], in test [4] and in test [5] was under 2 µM throughout. For the same compound, the entries for the “MIC=>80” value in test [6] and in test [7] were 10 µM (≈ 5.56 µg/mL) and over 10 µM, respectively.
In the case of `CO[C@H]1/C=C/O[C@@]2(C)Oc3c(C)c(O)c4c(O)c(c(/C=N/N5CCN(C)CC5)c(O)c4c3C2=O)NC(=O)/C(C)=C\C=C\[C@H](C)[C@H](O)[C@@H](C)[C@@H](O)[C@@H](C)[C@H](OC(C)=O)[C@@H]1C` [RIFAMPIN], the MIC80 (in general, the lowest concentration that inhibits either 80% of growth or 80% of the strains tested, depending on the study) in test [1] is 0.04 µM (≈ 0.0329 µg/mL); in test [2], 0.04 µM (≈ 0.0329 µg/mL); in test [3], over 1.2 µM; in test [4], 0.04 µM (≈ 0.0329 µg/mL); in test [5], 0.04 µM (≈ 0.0329 µg/mL). In addition, the “MIC=>80” value in test [6] and in test [7] was 0.04 µM (≈ 0.0329 µg/mL) each time.
For `NNC(=O)c1ccncc1` [ISONIAZID], the MIC80 was 0.2 µM (≈ 0.0274 µg/mL) in test [1]; over 15 µM in test [2]; 0.2 µM (≈ 0.0274 µg/mL) in test [3]; 0.2 µM (≈ 0.0274 µg/mL) in test [4]; 0.2 µM (≈ 0.0274 µg/mL) in test [5]. Also, the “MIC=>80” value in test [6] and in test [7] was 0.2 µM (≈ 0.0274 µg/mL) each time.
For the compound `CN[C@@H]1[C@H](O[C@H]2[C@H](O[C@H]3[C@H](O)[C@@H](O)[C@H](N=C(N)N)[C@@H](O)[C@@H]3N=C(N)N)O[C@@H](C)[C@]2(O)C=O)O[C@@H](CO)[C@H](O)[C@H]1O` [STREPTOMYCIN], the MIC80 in test [1] is over 11 µM; in test [2] it was 0.3 µM (≈ 0.174 µg/mL); in test [3], 0.3 µM (≈ 0.174 µg/mL); in test [4] it was 0.3 µM (≈ 0.174 µg/mL); in test [5] it was 0.3 µM (≈ 0.174 µg/mL). Besides, the “MIC=>80” value in test [6] and in test [7] was 0.3 µM (≈ 0.174 µg/mL) throughout.
For the compound `CC[C@@H](CO)NCCN[C@@H](CC)CO` [ETHAMBUTOL], the MIC80 in test [1] was 9.8 µM (≈ 2 µg/mL); in test [2], 9.8 µM (≈ 2 µg/mL); in test [3], 9.8 µM (≈ 2 µg/mL); in test [4], over 20 µM; in test [5] it was 4.9 µM (≈ 1 µg/mL). Besides, the “MIC=>80” value in test [6] and in test [7] was 9.8 µM (≈ 2 µg/mL) in each case.
`CN(C)CCOc1ncc(Nc2cc(N3CCC(c4ccccc4Cl)C3)nc3cc(F)c(F)cc23)cc1F` (stereo not given): the MIC80 in test [1] came to 25 µM (≈ 13.6 µg/mL); in test [2] it was 3.1 µM (≈ 1.68 µg/mL); in test [3], 3.1 µM (≈ 1.68 µg/mL); in test [4], 6.3 µM (≈ 3.41 µg/mL); in test [5], 25 µM (≈ 13.6 µg/mL). Moreover, the “MIC=>80” value in test [6] and in test [7] was 3.1 µM (≈ 1.68 µg/mL) in each case.
In the case of `CN(C)CCOc1ncc(Nc2cc(-c3ccccc3)nc3cc(-c4ccc(F)cc4)[nH]c23)cc1F`, the MIC80 in test [1] amounted to 25 µM (≈ 12.1 µg/mL); in test [2], 3.1 µM (≈ 1.51 µg/mL); in test [3], 3.1 µM (≈ 1.51 µg/mL); in test [4], 6.3 µM (≈ 3.06 µg/mL); in test [5], 25 µM (≈ 12.1 µg/mL). The “MIC=>80” value in test [6] and in test [7] was 3.1 µM (≈ 1.51 µg/mL) in each case.
As to `CC1COc2c(N3CCN(C)CC3)c(F)cc3c(=O)c(C(=O)O)cn1c23` (stereo not given) [OFLOXACIN], the MIC80 is 0.7 µM (≈ 0.253 µg/mL) in test [1]; 0.7 µM (≈ 0.253 µg/mL) in test [2]; 0.7 µM (≈ 0.253 µg/mL) in test [3]; 0.3 µM (≈ 0.108 µg/mL) in test [4]; over 5.6 µM in test [5]. Moreover, the “MIC=>80” value in test [6] and in test [7] was 0.7 µM (≈ 0.253 µg/mL) each time.
With `COc1cc2nc(N3CCC(c4ccccc4Cl)C3)cc(Nc3cnc(OCCN(C)C)c(F)c3)c2cc1OC` (stereo not given), the MIC80 in test [1] was 12.5 µM (≈ 7.08 µg/mL); in test [2], 6.3 µM (≈ 3.57 µg/mL); in test [3], 3.1 µM (≈ 1.75 µg/mL); in test [4], 6.3 µM (≈ 3.57 µg/mL); in test [5], 12.5 µM (≈ 7.08 µg/mL). Moreover, the “MIC=>80” value in test [6] was 6.3 µM (≈ 3.57 µg/mL); in test [7], 3.1 µM (≈ 1.75 µg/mL).
Turning to `CN(C)CCOc1ncc(Nc2cc(-c3ccccc3)nc3cc(-c4ccc(F)cc4)nn23)cc1F`, the MIC80 turned out to be 25 µM (≈ 12.2 µg/mL) in test [1]; 12.5 µM (≈ 6.08 µg/mL) in test [2]; 6.3 µM (≈ 3.07 µg/mL) in test [3]; 6.3 µM (≈ 3.07 µg/mL) in test [4]; 12.5 µM (≈ 6.08 µg/mL) in test [5]. In addition, the “MIC=>80” value in test [6] stood at 6.3 µM (≈ 3.07 µg/mL); in test [7] it was 12.5 µM (≈ 6.08 µg/mL).
